Measurements reported in ChEMBL document CHEMBL4265968, “Efficient analoging around ethionamide to explore thioamides bioactivation pathways triggered by boosters in Mycobacterium tuberculosis” (Eur J Med Chem, 2018).
Values after ≈ are worked out from the molar mass of the structure shown.

What was measured:
[1] = Electrochemical behavior of the compound assessed as redox potential corrected toward normal hydrogen electrode at 10^-3 M by cyclic voltammetry; type: physicochemical; conditions: 1000 µM
[2] = system: Mycobacterium tuberculosis; assay: Antimycobacterial activity against GFP expressing Mycobacterium tuberculosis H37Rv after 7 days in presence of EthR inhibitor BDM41906 by fluorescence assay; type: functional; conditions: 168 h
[3] = system: Mycobacterium tuberculosis; assay: Antimycobacterial activity against GFP expressing Mycobacterium tuberculosis H37Rv after 7 days in presence of EthR2 inhibitor SMARt-420 by fluorescence assay; type: functional; conditions: 168 h
[4] = system: Mycobacterium tuberculosis; assay: Antimycobacterial activity against GFP expressing Mycobacterium tuberculosis H37Rv after 7 days by fluorescence assay; type: functional; conditions: 168 h
[5] = system: Mycobacterium tuberculosis; assay: Ratio of MIC50 for GFP expressing Mycobacterium tuberculosis H37Rv in absence of EthR2 inhibitor SMARt-420 to MIC50 for GFP expressing Mycobacterium tuberculosis H37Rv in presence of EthR2 inhibitor SMARt-420; type: functional
[6] = system: Mycobacterium tuberculosis; assay: Ratio of MIC50 for GFP expressing Mycobacterium tuberculosis H37Rv in absence of EthR inhibitor BDM41906 to MIC50 for GFP expressing Mycobacterium tuberculosis H37Rv in presence of EthR inhibitor BDM41906; type: functional

Compound `NC(=S)c1ccnc(C2(C(F)(F)F)CC2)c1` has an Activity [1] of 1.65 V, an MIC50 [2] of 10 µM and an MIC50 [3] of 10 µM. For the same compound, the MIC50 [4] was greater than 30 µM, the Ratio [5] was greater than 3 and the Ratio [6] was greater than 3.

`N#Cc1cccc(Cc2cc(C(N)=S)ccn2)c1` showed an MIC50 [2] of 0.1 µM, an MIC50 [3] of 0.1 µM and an MIC50 [4] of 0.5 µM (≈ 0.127 µg/mL). It also gave a Ratio [5] of 5 and a Ratio [6] of 5.

Work on `CCCc1cc(C(N)=S)ccn1` [PROTIONAMIDE] yielded an Activity [1] of 1.43 V, an MIC50 [2] of 0.9 µM and an MIC50 [3] of 0.5 µM. It also gave an MIC50 [4] of 13 µM (≈ 2.34 µg/mL), a Ratio [5] of 26 and a Ratio [6] of 14.

`CCOC(=O)CCc1cc(C(N)=S)ccn1` showed an MIC50 [2] of 3.8 µM, an MIC50 [3] of 1.3 µM and an MIC50 [4] greater than 30 µM. For the same compound, the Ratio [5] was greater than 23 and the Ratio [6] was greater than 8.

For `CCCCc1cc(C(N)=S)ccn1`, the Activity [1] was 1.39 V, the MIC50 [2] was 0.6 µM and the MIC50 [3] was 0.4 µM. The MIC50 [4] was 5.8 µM (≈ 1.13 µg/mL), the Ratio [5] was 15 and the Ratio [6] was 10.

`CCC(C)c1cc(C(N)=S)ccn1` (centres undefined) gave an Activity [1] of 1.48 V, an MIC50 [2] of 0.2 µM and an MIC50 [3] of 0.2 µM. The MIC50 [4] was 30 µM (≈ 5.83 µg/mL), the Ratio [5] was 150 and the Ratio [6] was 150.

`CCCCc1cc(C(N)=O)ccn1` showed an MIC50 [2] greater than 30 µM, an MIC50 [3] greater than 30 µM and an MIC50 [4] greater than 30 µM.

For `NC(=S)c1ccnc(Cc2ccc(F)cc2)c1`, the MIC50 [2] was 0.2 µM, the MIC50 [3] was 0.1 µM and the MIC50 [4] was 1 µM (≈ 0.246 µg/mL). For the same compound, the Ratio [5] was 10 and the Ratio [6] was 5.

Compound `CC(c1ccccc1)c1cc(C(N)=S)ccn1` (centres undefined) has an MIC50 [2] of 0.6 µM, an MIC50 [3] of 0.7 µM and an MIC50 [4] greater than 30 µM. It also gave a Ratio [5] greater than 43 and a Ratio [6] greater than 50.

`NC(=S)c1ccnc(CC2CCCCC2)c1` gave an Activity [1] of 1.62 V, an MIC50 [2] of 0.6 µM and an MIC50 [3] of 0.7 µM. For the same compound, the MIC50 [4] was greater than 30 µM, the Ratio [5] was greater than 43 and the Ratio [6] was greater than 50.

Work on `NC(=S)c1ccnc(CC(F)(F)F)c1` yielded an Activity [1] of 1.55 V, an MIC50 [2] of 10 µM and an MIC50 [3] of 1.5 µM. The MIC50 [4] was greater than 30 µM, the Ratio [5] was greater than 20 and the Ratio [6] was greater than 3.

For `CC(C)Cc1cc(C(N)=S)ccn1`, the Activity [1] was 1.57 V, the MIC50 [2] was 9.1 µM and the MIC50 [3] was 3.8 µM. It also gave an MIC50 [4] greater than 30 µM, a Ratio [5] greater than 8 and a Ratio [6] greater than 3.

Compound `NC(=S)c1ccnc(Cc2cccc(F)c2)c1` has an MIC50 [2] of 0.1 µM, an MIC50 [3] of 0.1 µM and an MIC50 [4] of 0.6 µM (≈ 0.148 µg/mL). For the same compound, the Ratio [5] was 6 and the Ratio [6] was 6.

For `COc1ccc(Cc2cc(C(N)=S)ccn2)cc1`, the MIC50 [2] was 0.3 µM, the MIC50 [3] was 0.2 µM and the MIC50 [4] was 2.4 µM (≈ 0.62 µg/mL). The Ratio [5] was 12 and the Ratio [6] was 8.

`CC(C)CCc1cc(C(N)=S)ccn1` gave an Activity [1] of 1.63 V, an MIC50 [2] of 0.1 µM and an MIC50 [3] of 0.1 µM. For the same compound, the MIC50 [4] was 6.6 µM (≈ 1.37 µg/mL), the Ratio [5] was 52 and the Ratio [6] was 52.

Compound `CCc1cc(/C(N)=[S+]/[O-])ccn1` has an MIC50 [2] of 0.4 µM, an MIC50 [3] of 0.3 µM and an MIC50 [4] of 10 µM (≈ 1.82 µg/mL). The Ratio [5] was 33 and the Ratio [6] was 25.

`NC(=S)c1ccnc(Cc2ccccc2)c1` gave an MIC50 [2] of 0.1 µM, an MIC50 [3] of 0.1 µM and an MIC50 [4] of 1.1 µM (≈ 0.251 µg/mL). For the same compound, the Ratio [5] was 11 and the Ratio [6] was 11.

`CCc1cc(C(N)=S)ccn1` [ETHIONAMIDE] gave an Activity [1] of 1.46 V, an MIC50 [2] of 2 µM and an MIC50 [3] of 0.9 µM. It also gave an MIC50 [4] of 19 µM (≈ 3.16 µg/mL), a Ratio [5] of 21 and a Ratio [6] of 10.

In the case of `NC(=S)c1ccnc(C2CC2)c1`, the Activity [1] is reported as 1.4 V, the MIC50 [2] is reported as 1 µM and the MIC50 [3] is reported as 0.5 µM. It also gave an MIC50 [4] of 6.6 µM (≈ 1.18 µg/mL), a Ratio [5] of 13 and a Ratio [6] of 7.

For `CC(C)c1cc(C(N)=S)ccn1`, the Activity [1] was 1.62 V, the MIC50 [2] was 0.1 µM and the MIC50 [3] was 0.2 µM. The MIC50 [4] was 21 µM (≈ 3.79 µg/mL), the Ratio [5] was 105 and the Ratio [6] was 210.
